Data from patent publication US7253171B2 (Laboratorios Almirall, S.A., priority 2001, dated 2007).
Where two headings read alike, the source gives them in different places.

What was measured:
α4β1 integrin = molecular target: T1, α4β1 integrin (Homo sapiens, UniProt P05556+P13612); assay: U-937 cell adhesion to human VCAM-1 (α4β1 binding assay); type: cell-based; conditions: U-937 cells, immobilized human VCAM-1; read-out: IC50 values in the α4β1 assays
T1 construct: endogenous in cells; host or cells: U-937 cells
T1 sequence (P05556 21-798, one chain of several): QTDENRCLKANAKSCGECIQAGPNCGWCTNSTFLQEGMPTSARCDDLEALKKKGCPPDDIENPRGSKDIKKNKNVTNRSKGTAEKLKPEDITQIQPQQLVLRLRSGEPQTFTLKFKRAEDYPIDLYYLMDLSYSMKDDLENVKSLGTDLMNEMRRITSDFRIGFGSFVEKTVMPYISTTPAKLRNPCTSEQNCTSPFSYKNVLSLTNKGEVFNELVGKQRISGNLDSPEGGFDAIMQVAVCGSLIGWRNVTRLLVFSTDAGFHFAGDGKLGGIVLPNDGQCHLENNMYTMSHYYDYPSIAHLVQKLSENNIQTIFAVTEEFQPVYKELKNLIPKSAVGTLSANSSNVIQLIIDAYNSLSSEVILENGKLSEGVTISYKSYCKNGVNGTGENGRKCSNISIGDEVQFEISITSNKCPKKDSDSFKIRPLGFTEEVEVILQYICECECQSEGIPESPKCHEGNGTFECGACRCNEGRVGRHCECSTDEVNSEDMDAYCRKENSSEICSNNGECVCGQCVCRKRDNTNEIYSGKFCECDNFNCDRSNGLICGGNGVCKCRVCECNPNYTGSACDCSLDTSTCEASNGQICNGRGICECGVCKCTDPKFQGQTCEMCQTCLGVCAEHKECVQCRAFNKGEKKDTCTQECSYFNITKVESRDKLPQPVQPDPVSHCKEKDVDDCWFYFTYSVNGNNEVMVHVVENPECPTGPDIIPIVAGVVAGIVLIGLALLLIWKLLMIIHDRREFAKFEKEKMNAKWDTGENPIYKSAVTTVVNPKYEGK
Method: U-937 Cell Adhesion to Human VCAM-1 (α4β1 Binding Assay)
Recombinant human soluble VCAM-1 (R&D Systems Ltd., UK) at 2 μg/ml in PBS was immobilized overnight onto microtiter plates. Unbound VCAM-1 was washed away and VCAM-1 coated plates were blocked with bovine serum albumin (BSA) 2,5% in PBS for 2 h at room temperature. U-937 cells were labelled with 5-carboxyfluorescein diacetate (5-CFDA) in order to detect bound cells to the wells. Test compounds were added to the wells followed by U-937 cells and the adhesion assay was performed for 1 h at 37° C. Following incubation, the wells were emptied and washed. Inhibition of binding was measured by the quantity of fluorescence bound to the plate for each of the various concentrations of test compound, as well as for controls containing no test compound, with a Cytofluor 2300 fluorescence measurement system.

α4β7 integrin = molecular target: T2, α4β7 integrin (Homo sapiens, UniProt P13612+P26010); assay: RPMI 8866 cell adhesion to mouse MAdCAM-1 (α4β7 binding assay); type: cell-based; conditions: RPMI 8866 cells, immobilized mouse MAdCAM-1
T2 construct: endogenous in cells; host or cells: RPMI 8866 cells
T2 sequence (P13612 34-1032): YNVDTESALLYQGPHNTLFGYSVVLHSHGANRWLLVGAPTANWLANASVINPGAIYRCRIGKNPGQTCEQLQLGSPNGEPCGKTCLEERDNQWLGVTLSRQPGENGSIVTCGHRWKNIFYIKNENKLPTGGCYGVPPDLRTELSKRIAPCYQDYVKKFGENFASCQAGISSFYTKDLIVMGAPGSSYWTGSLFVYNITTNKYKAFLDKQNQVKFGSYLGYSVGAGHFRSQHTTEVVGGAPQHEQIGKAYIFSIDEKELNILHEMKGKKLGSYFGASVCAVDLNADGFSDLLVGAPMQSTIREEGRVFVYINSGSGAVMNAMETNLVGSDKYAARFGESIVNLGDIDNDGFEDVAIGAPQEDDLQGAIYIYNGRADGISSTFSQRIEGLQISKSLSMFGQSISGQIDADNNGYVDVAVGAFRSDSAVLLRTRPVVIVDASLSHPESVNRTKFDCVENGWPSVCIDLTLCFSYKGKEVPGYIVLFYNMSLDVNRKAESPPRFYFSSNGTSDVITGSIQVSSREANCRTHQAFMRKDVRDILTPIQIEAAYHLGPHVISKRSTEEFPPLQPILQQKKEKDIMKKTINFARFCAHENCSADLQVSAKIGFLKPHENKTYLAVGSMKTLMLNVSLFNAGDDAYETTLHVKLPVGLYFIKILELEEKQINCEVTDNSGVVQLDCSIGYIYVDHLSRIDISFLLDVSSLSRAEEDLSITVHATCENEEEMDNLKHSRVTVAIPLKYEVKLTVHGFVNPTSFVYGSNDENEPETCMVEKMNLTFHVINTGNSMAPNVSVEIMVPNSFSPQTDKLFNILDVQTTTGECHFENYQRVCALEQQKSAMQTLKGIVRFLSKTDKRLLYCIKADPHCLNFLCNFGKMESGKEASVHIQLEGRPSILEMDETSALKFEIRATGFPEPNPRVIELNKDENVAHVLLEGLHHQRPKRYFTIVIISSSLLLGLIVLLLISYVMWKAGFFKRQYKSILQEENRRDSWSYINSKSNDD
T2 sequence (P26010 20-798): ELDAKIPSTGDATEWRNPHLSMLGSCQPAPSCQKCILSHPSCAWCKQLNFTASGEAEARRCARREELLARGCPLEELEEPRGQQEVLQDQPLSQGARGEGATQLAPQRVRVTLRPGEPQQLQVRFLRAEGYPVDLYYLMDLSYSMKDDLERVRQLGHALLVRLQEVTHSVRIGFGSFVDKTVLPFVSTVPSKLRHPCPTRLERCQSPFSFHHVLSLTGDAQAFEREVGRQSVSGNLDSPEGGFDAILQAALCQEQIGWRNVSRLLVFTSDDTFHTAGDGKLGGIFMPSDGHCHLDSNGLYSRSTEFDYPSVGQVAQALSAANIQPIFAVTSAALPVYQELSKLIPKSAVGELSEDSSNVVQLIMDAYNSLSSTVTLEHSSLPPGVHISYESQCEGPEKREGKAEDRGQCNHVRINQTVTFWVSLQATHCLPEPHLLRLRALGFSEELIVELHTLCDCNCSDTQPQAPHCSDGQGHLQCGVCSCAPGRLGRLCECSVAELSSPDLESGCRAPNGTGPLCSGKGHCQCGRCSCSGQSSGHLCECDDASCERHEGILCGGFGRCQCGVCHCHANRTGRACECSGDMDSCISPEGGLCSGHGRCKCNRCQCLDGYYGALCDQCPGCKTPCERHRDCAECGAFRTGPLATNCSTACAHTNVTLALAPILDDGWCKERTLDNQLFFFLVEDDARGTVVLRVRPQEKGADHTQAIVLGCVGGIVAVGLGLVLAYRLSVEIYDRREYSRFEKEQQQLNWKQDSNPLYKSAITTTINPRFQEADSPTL
Method: RPMI 8866 Cell Adhesion to Mouse MAdCAM-1 (α4β7 Binding Assay)
Recombinant mouse MAdCAM-1 was coated on a 96-well plate overnight. Unbound MAdCAM-1 was washed away and plates were blocked with 0,5% BSA. Cells were labelled with BCECF-AM and added to ligand-coated wells. Test compounds were added to the wells followed by RPMI 8866 and the adhesion assay was performed for 45 min at room temperature. Following incubation, the wells were emptied and washed. Inhibition of binding was measured by the quantity of fluorescence bound to the plate for each of the various concentrations of test compound, as well as for controls containing no test compound, with a Cytofluor 2300 fluorescence measurement system.

[1] = read-out: IC50 values in the α4β7 assays
[2] = read-out: IC50 values in the α4β7

IC50 (α4β1 integrin) [nM] | IC50 (α4β7 integrin; [1]) [nM] | SMILES | IC50 (α4β7 integrin; [2]) [nM]
< 100 | 1000 to 10000 | CN(C(=O)N[C@@H](Cc1ccc(NC(=O)c2c(Cl)cccc2Cl)cc1)C(=O)O)c1ccccc1S(=O)(=O)c1ccccc1 [Example 23, (S)-2-[3-(2-Benzenesulfonylphenyl)-3-methylureido]-3-[4-(2,6-dichlorobenzoylamino)phenyl]propionic acid] | –
< 100 | 1000 to 10000 | O=C(Nc1ccccc1S(=O)(=O)N1CCCCC1)N[C@@H](Cc1ccc(NC(=O)c2c(Cl)cccc2Cl)cc1)C(=O)O [Example 38, (S)-3-[4-(2,6-Dichlorobenzoylamino)phenyl]-2-{3-[2-(piperdine-1-sulfonyl)phenyl]ureido}propionic acid] | –
< 100 | 1000 to 10000 | CN(C(=O)N[C@@H](Cc1ccc(NC(=O)c2c(Cl)cccc2Cl)cc1)C(=O)O)c1ccccc1S(=O)(=O)N1CCCCC1 [Example 76, (S)-3-[4-(2,6-Dichlorobenzoylamino)phenyl]-2-{3-methyl-3-[2-(piperidine-1-sulfonyl)-phenyl]ureido}propionic acid] | –
< 100 | – | CN1CCN(S(=O)(=O)c2ccccc2NC(=O)N[C@@H](Cc2ccc(NC(=O)c3c(Cl)cncc3Cl)cc2)C(=O)O)CC1 [Example 90, (S)-3-(4-{[1-(3,5-Dichloropyridin-4-yl)methanoyl]amino}phenyl)-2-{3-[2-(4-methylpiperazine-1-sulfonyl)phenyl]ureido}propionic acid] | < 100

SMILES | IC50 (α4β1 integrin) [nM] | IC50 (α4β7 integrin; [1]) [nM] | IC50 (α4β7 integrin; [2]) [nM]
CN(C1CCCCC1)S(=O)(=O)c1ccccc1NC(=O)N[C@@H](Cc1ccc(NC(=O)c2c(Cl)cccc2Cl)cc1)C(=O)O [Example 40] | < 100 | 1000 to 10000 | –
CCCN(C(=O)N[C@@H](Cc1ccc(NC(=O)c2c(Cl)cncc2Cl)cc1)C(=O)O)c1ccccc1C(=O)N(C)C1CCCCC1 [Example 82] | < 100 | – | < 100
CN(C(=O)c1ccccc1N(CC1CC1)C(=O)N[C@@H](Cc1ccc(NC(=O)c2c(Cl)cncc2Cl)cc1)C(=O)O)C1CCCCC1 [Example 83] | < 100 | – | < 100
CN1CCN(C(=O)Oc2ccc(C[C@H](NC(=O)Nc3ccccc3S(=O)(=O)c3ccccc3)C(=O)O)cc2)CC1 [Example 114, 4-Methylpiperazine-1-carboxylic acid 4-{(S)-2-[3-(2-benzenesulfonylphenyl)ureido]-2-carboxyethyl}phenyl ester] | – | 1000 to 10000 | –
